Assay results: PubChem BioAssay AID256 (DTP/NCI, 2004)
Toxic doses and inconclusive results are not listed. The calls were made as follows: active = survival T/C of 150% or more; inactive = T/C below 125% in these data.

Tested on: CD2F1 mice, L1210 leukemia ip, survival T/C
Experiment: NCI In Vivo Anticancer Drug Screen. Data for tumor model L1210 Leukemia (intraperitoneal) in CD2F1 (CDF1) mice
Details: endpoint: mean survival time, higher = longer survival
Method in brief: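 Implant tumor; dose compound or vehicle; measure endpoint in both groups; report treated divided by control.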

[1] = dose: 12.5 mg/kg/injection, schedule: Q01DX009 (ip), vehicle: water
[2] = dose: 25.0 mg/kg/injection, schedule: Q01DX009 (ip), vehicle: water
[3] = dose: 50.0 mg/kg/injection, schedule: Q01DX009 (ip), vehicle: water
[4] = dose: 100.0 mg/kg/injection, schedule: Q01DX001 (ip), vehicle: saline with Tween-80
[5] = dose: 200.0 mg/kg/injection, schedule: Q04DX003 (ip), vehicle: saline with Tween-80
[6] = dose: 400.0 mg/kg/injection, schedule: Q04DX003 (ip), vehicle: saline with Tween-80
[7] = dose: 100.0 mg/kg/injection, schedule: Q01DX009 (ip), vehicle: saline with Tween-80
[8] = dose: 200.0 mg/kg/injection, schedule: Q01DX009 (ip), vehicle: saline with Tween-80
[9] = dose: 100.0 mg/kg/injection, schedule: Q04DX003 (ip), vehicle: saline with Tween-80
[10] = dose: 12.5 mg/kg/injection, schedule: Q01DX009 (ip), vehicle: Klucel (hydroxypropylcellulose) (HPC)
[11] = dose: 25.0 mg/kg/injection, schedule: Q01DX009 (ip), vehicle: Klucel (hydroxypropylcellulose) (HPC)
[12] = dose: 50.0 mg/kg/injection, schedule: Q01DX009 (ip), vehicle: Klucel (hydroxypropylcellulose) (HPC)
[13] = dose: 200.0 mg/kg/injection, schedule: Q01DX009 (ip), vehicle: Klucel (hydroxypropylcellulose) (HPC)
[14] = dose: 100.0 mg/kg/injection, schedule: Q01DX009 (ip), vehicle: Klucel (hydroxypropylcellulose) (HPC)

Measured: T/C

O=C1N(c2ccccc2)CCS1(=O)=O
inactive: dose: 9.5 mg/kg/injection, schedule: Q01DX001 (ip), vehicle: other 101 % of control | dose: 19.0 mg/kg/injection, schedule: Q01DX001 (ip), vehicle: other 100 % of control | dose: 38.0 mg/kg/injection, schedule: Q01DX001 (ip), vehicle: other 106 % of control

COc1cc2ccc(/C=C\[N+](=O)[O-])cc2cc1OC
inactive: [1] 94 % of control | [2] 102 % of control | [3] 96 % of control

CCOC(OCC)c1cc(-c2cnc(N)nc2N)cc(Cl)c1Cl
inactive: [4] 98 % of control | dose: 200.0 mg/kg/injection, schedule: Q01DX001 (ip), vehicle: saline with Tween-80 97 % of control | dose: 400.0 mg/kg/injection, schedule: Q01DX001 (ip), vehicle: saline with Tween-80 97 % of control

COc1ccc2c3c1OC1C(=O)C4CC5(c6c(O)ccc(O)c64)C(C2)N(C)CCC315 (stereo not drawn)
inactive: [5] 86 % of control | [6] 86 % of control

CC(C)(C#N)OC(=O)Nc1cccc(Cl)c1
inactive: dose: 100.0 mg/kg/injection, schedule: Q04DX002 (ip), vehicle: saline with Tween-80 93 % of control | dose: 200.0 mg/kg/injection, schedule: Q04DX002 (ip), vehicle: saline with Tween-80 90 % of control | dose: 400.0 mg/kg/injection, schedule: Q04DX002 (ip), vehicle: saline with Tween-80 86 % of control

O=Cc1cc([N+](=O)[O-])ccc1OCC(=O)O
inactive: [7] 92 % of control | [8] 95 % of control | dose: 400.0 mg/kg/injection, schedule: Q01DX009 (ip), vehicle: saline with Tween-80 96 % of control

CC/C=C\C/C=C\C/C=C\CCCCCCCC(=O)O
inactive: [9] 92 % of control | [5] 100 % of control | [6] 92 % of control

CN(C)c1nc2c(N)ncnc2n1C1OC(CO)C(O)C1O (stereo not drawn)
inactive: dose: 10.0 mg/kg/injection, schedule: Q04DX002 (ip), vehicle: saline with Tween-80 103 % of control | dose: 20.0 mg/kg/injection, schedule: Q04DX002 (ip), vehicle: saline with Tween-80 98 % of control | dose: 40.0 mg/kg/injection, schedule: Q04DX002 (ip), vehicle: saline with Tween-80 98 % of control | dose: 50.0 mg/kg/injection, schedule: Q01DX001 (ip), vehicle: saline 100 % of control | dose: 50.0 mg/kg/injection, schedule: Q01DX009 (ip), vehicle: saline 123 % of control | dose: 100.0 mg/kg/injection, schedule: Q01DX001 (ip), vehicle: saline 106 % of control | dose: 100.0 mg/kg/injection, schedule: Q01DX009 (ip), vehicle: saline 100 % of control | dose: 200.0 mg/kg/injection, schedule: Q01DX001 (ip), vehicle: saline 102 % of control

Nc1ncc2ccccc2c1-c1ccc(NC(=O)CCCl)cc1
inactive: dose: 25.0 mg/kg/injection, schedule: Q04DX003 (ip), vehicle: DMSO 98 % of control | dose: 50.0 mg/kg/injection, schedule: Q04DX003 (ip), vehicle: DMSO 102 % of control | dose: 100.0 mg/kg/injection, schedule: Q04DX003 (ip), vehicle: DMSO 95 % of control | dose: 200.0 mg/kg/injection, schedule: Q04DX003 (ip), vehicle: DMSO 102 % of control | dose: 400.0 mg/kg/injection, schedule: Q04DX003 (ip), vehicle: DMSO 90 % of control

CCCCCC(Br)C(Br)CC(Br)C(Br)CCCCCCCC(=O)O (stereo not drawn)
inactive: dose: 100.0 mg/kg/injection, schedule: Q01DX009 (ip), vehicle: acetone 95 % of control | dose: 200.0 mg/kg/injection, schedule: Q01DX009 (ip), vehicle: acetone 92 % of control | dose: 400.0 mg/kg/injection, schedule: Q01DX009 (ip), vehicle: acetone 90 % of control

C=CCCCCCCCCC(=O)NCC1CCCCO1 (stereo not drawn)
inactive: [9] 94 % of control | [5] 98 % of control | [6] 93 % of control

CC(=O)NCCNC(C)=O
inactive: dose: 100.0 mg/kg/injection, schedule: Q04DX003 (ip), vehicle: saline 91 % of control | dose: 200.0 mg/kg/injection, schedule: Q04DX003 (ip), vehicle: saline 100 % of control | dose: 400.0 mg/kg/injection, schedule: Q04DX003 (ip), vehicle: saline 91 % of control

Oc1c(C(c2ccccc2)N2CCCCC2)ccc2ccccc12 (stereo not drawn)
inactive: [7] 101 % of control | [8] 97 % of control

CS(=O)(=O)OCC(OS(C)(=O)=O)C(OS(C)(=O)=O)C(OS(C)(=O)=O)C(COS(C)(=O)=O)OS(C)(=O)=O (stereo not drawn)
inactive: [10] 101 % of control | [11] 104 % of control | [12] 101 % of control

[C-]#[O+].[C-]#[O+].[C-]#[O+].[C-]#[O+].[C-]#[O+].[Cr].c1ccc(O[PH+](Oc2ccccc2)Oc2ccccc2)cc1
inactive: dose: 50.0 mg/kg/injection, schedule: Q01DX009 (ip), vehicle: saline with Tween-80 96 % of control | [7] 96 % of control | [8] 91 % of control

Cc1ccc(S(=O)(=O)N=N/C=C2/C=CC=CN2O)cc1
inactive: dose: 20.0 mg/kg/injection, schedule: Q01DX009 (ip), vehicle: Klucel (hydroxypropylcellulose) (HPC) 105 % of control | dose: 40.0 mg/kg/injection, schedule: Q01DX009 (ip), vehicle: Klucel (hydroxypropylcellulose) (HPC) 108 % of control | dose: 45.0 mg/kg/injection, schedule: Q01DX009 (ip), vehicle: Klucel (hydroxypropylcellulose) (HPC) 114 % of control | dose: 87.5 mg/kg/injection, schedule: Q01DX009 (ip), vehicle: Klucel (hydroxypropylcellulose) (HPC) 121 % of control

Nc1cc(Cl)c(O)c(Cl)c1
inactive: [4] 92 % of control

CCCCCCCCN(C)S(=O)(=O)CCCC
inactive: dose: 6.25 mg/kg/injection, schedule: Q01DX009 (ip), vehicle: water 103 % of control | [1] 95 % of control | [2] 106 % of control | [3] 111 % of control | dose: 100.0 mg/kg/injection, schedule: Q01DX009 (ip), vehicle: water 103 % of control

O=[N+]([O-])c1ccc(/C=C2\c3ccccc3-c3nc4ccccc4nc32)cc1
inactive: dose: 75.0 mg/kg/injection, schedule: Q01DX009 (ip), vehicle: saline 86 % of control | dose: 150.0 mg/kg/injection, schedule: Q01DX009 (ip), vehicle: saline 88 % of control | dose: 300.0 mg/kg/injection, schedule: Q01DX009 (ip), vehicle: saline 95 % of control

Cc1c(O)c2c(c(O)c1Cc1cccc(C#N)c1)C(=O)c1ccccc1C2=O
inactive: [10] 89 % of control | [11] 90 % of control | [12] 90 % of control | [13] 89 % of control

CC1C(O)=C(c2ccccc2)P(=O)(Cc2ccccc2)C1C (stereo not drawn)
inactive: [12] 104 % of control | [14] 93 % of control | [13] 93 % of control

O=C(Nc1nccs1)Nc1cc([N+](=O)[O-])ccc1F
inactive: [12] 104 % of control | [14] 96 % of control | [13] 93 % of control
